Assay results published in patent publication US20240285599A1, “Mature-Hepatocyte Transdifferentiation Suppressing Composition” (OSAKA UNIVERSITY, priority 2021, published 2024).

Key:
[1] = tested on: human cholangiocarcinoma cell line HuCCT1; assay: Cell proliferation assay (IncuCyte) of cholangiocarcinoma cell line HuCCT1; assay type: cell-based
Procedure: A human hepatoma cell line HepG2, and human cholangiocarcinoma cell lines HuCCT1, HuCCA1, and KKU213 were obtained from the JCRB Cell Bank. The HepG2 and KKU213 cells were cultured in a Dulbecco's modified Eagle's medium (DMEM; Nacalai Tesque, Inc., Japan) having added thereto 10% heat-inactivated fetal calf serum (FCS; Gibco, USA). The HuCCT1 cells were cultured in an RPMI medium (Nacalai Tesque, Inc., Japan) containing 10% FCS. The HuCCA1 cells were cultured in D-MEM/Ham's F-12 (containing L-glutamine and phenol red) (Wako Pure Chemical Industries, Ltd., Japan) having added thereto 10% FCS. All the cells were cultured with a CO2 incubator at 37° C. The cells were detached with trypsin (Nacalai Tesque, Inc., Japan), and were passaged. Those cells were routinely examined for mycoplasma.
(§1) The transfection of siRNA or a plasmid into cells was performed with Lipofectamine RNAiMAX Transfection Reagent (Thermo Fisher Scientific, Inc., USA) or Lipofectamine 2000 (Thermo Fisher Scientific, Inc., USA), respectively, and with Opti-MEM (Thermo Fisher Scientific, Inc., USA). The transfection of the siRNA was performed as follows: the cells were dispersed at a concentration of 100,000 cells/mL; 10 μM of the siRNA was mixed into 100 μL of the Opti-MEM at a ratio of 1 μL, and the mixture was left at rest for 5 minutes; and then 3 μL of the RNAiMAX was mixed into the mixture, and the whole was left at rest for 15 minutes, followed by administration to the supernatant of the previously dispersed cells. Further, a medium change was performed 24 hours thereafter.
Hepatocytes or cholangiocarcinoma cells were inoculated on a 96-well plate, and their cell proliferation was analyzed with IncuCyte (trademark) Si (Sartorius AG, Germany) in accordance with the manufacturer's instructions.
Two kinds of NIK siRNA (the NIK KD #1 and the NIK KD #2) were introduced into each of human cholangiocarcinoma cell lines HuCCT1, HuCCA1, and KKU213 to knock down MAP3K14 (NIK). […]

[2] = tested on: TRAF3/PTEN knockdown HepG2 cell; assay: KRT19 mRNA quantification and immunoblotting (P52) in TRAF3/PTEN knockdown HepG2; assay type: cell-based, human; conditions: HepG2 (PTKD #1); for increase in expression of P52 by knockdown of TRAF3 and PTEN: western blot
Procedure: as §1
A procedure for western blotting is as described in the previous report (Tanaka S, et al. Hepatology. 2016; 64(6): 1994-2014). The protein extracts of cells and animal tissues were prepared by using a lysis buffer having added thereto a protease inhibitor (Nacalai Tesque, Inc., Japan) and a phosphatase inhibitor (Nacalai Tesque, Inc., Japan). In western blotting for the detection of NIK, MG-132 (ChemScene, USA) was administered at a concentration of 5 μM 4 hours before protein recovery. The following antibodies were used in immunodetection: TRAF3 (1:1,000 Cell Signaling, #4729), PTEN (1:1,000 Cell Signaling, #9188), KRT19 (1:50,000 Abcam, #ab52625), p100/p52 (1:1,000 Cell Signaling, #4882), NIK (1:1,000 Cell Signaling, #4994), and β-actin (1:10,000 Sigma-Aldrich Co., LLC, #A5316). Anti-mouse IgG, HRP-linked whole Ab sheep (Cytiva, Japan), or anti-rabbit IgG, HRP-linked whole Ab donkey (Cytiva, Japan) was used as a secondary antibody, and luminescence analysis was performed with SuperSignal (trademark) West Pico PLUS Chemiluminescent Substrate (Thermo Fisher Scientific, Inc., USA).
Total RNA was extracted from a cell line and a human liver tissue with RNeasy Mini Kit (QIAGEN N.V., Nederland). Then, 1 μg of the total RNA was reverse-transcribed with ReverTra Ace qPCR RT Kit (Toyobo Co., Ltd., Tokyo) to synthesize complementary DNA. The mRNA expression of each of the following genes was analyzed through use of a TaqMan gene expression assay: human GAPDH (Hs02758991), human TRAF3 (Hs00936781), human PTEN (Hs02621230), human KRT19 (Hs00761767), human NIK (Hs01089753), mouse Gapdh (Mm09999915), mouse Traf3 (Mm00495752), mouse Pten (Mm00477208), mouse Krt19 (Mm00492980), mouse NIK (Mm00444166), and mouse Alb (Mm00802090). The gene expression amount of a human and the gene expression amount of a mouse were normalized to the expression amount of GAPDH.
The effect of TRAF3/PTEN inhibition on the expression of a bile duct marker in each of a primary human hepatocyte (hereinafter also referred to as “PHH”) and a human hepatoma cell line HepG2 cell (hereinafter also referred to as “HepG2”) was evaluated. The PHH and the HepG2 are each a mature hepatocyte having an albumin-producing ability. The TRAF3 and PTEN of each of the HepG2 and the PHH were knocked down with siRNA. The term “[…]” means a HepG2 or a PHH having introduced thereinto siRNA Traf3 #2 and Pten #1 (hereinafter also referred to as “PTKD #1HepG2” and “PTKD #1PHH” respectively). The term “PTKD #2” means a HepG2 or a PHH having introduced thereinto the siRNA Traf3 #2 and Pten #3 (hereinafter also referred to as “PTKD #2HepG2” and “PTKD #2PHH” respectively). All the siRNAs were obtained from Thermo Fisher Scientific, Inc. The sequence of each of the siRNAs is described below.
Specifically, 24 hours after the start of the culture of each of the PTKD #1HepG2 and the PTKD #1PHH obtained in Test Example 5, NIKSMI described above was added at a concentration of 9 μM. 48 Hours after that, the cells were recovered, and the mRNA of KRT19 was quantified, followed by immunoblotting. […]

[3] = NIK siRNA transfected, 72 h, FIG. 13
[4] = NIK siRNA transfected, cells recovered after 72 h culture, FIG. 13

COc1cc(C(N)=O)nc(-c2cccc(C#C[C@]3(O)CCN(C)C3=O)c2)c1 [NIKSMI, (R)-6-(3-((3-hydroxy-1-methyl-2-oxopyrrolidin-3-yl)ethynyl)phenyl)-4-methoxypicolinamide]
significantly suppressed: proliferation of cholangiocarcinoma cells ([1]; 9 μM or 15 μM added at beginning of culture, FIG. 21A) | increase in expression of KRT19 by knockdown of TRAF3 and PTEN ([2]; NIKSMI 9 μM added 24 h after start of culture, cells recovered 48 h later, FIG. 11) | increase in expression of P52 by knockdown of TRAF3 and PTEN ([2]; NIKSMI 9 μM, 48 h, FIG. 11)

NIK KD #2: siRNA of NIK, SEQ ID NO: 4 (sense) and 5 (antisense), from Thermo Fisher Scientific (sense GCAAAGAGCAAGAACCAAAUU; antisense UUUGGUUCUUGCUCUUUGCGU; listed as RNA, chemistry not given here)
significantly suppressed: proliferation of cholangiocarcinoma cells ([1]; NIK siRNA introduced, FIG. 18) | increase in expression of P52 by knockdown of TRAF3 and PTEN [2, 3] | increase in expression of KRT19 by knockdown of TRAF3 and PTEN [2, 4]

NIK KD #1: siRNA of NIK, SEQ ID NO: 2 (sense) and 3 (antisense), from Thermo Fisher Scientific (sense CAAACGCAAAGAGCAAGAAUU; antisense UUCUUGCUCUUUGCGUUUGCA; listed as RNA, chemistry not given here)
significantly suppressed: proliferation of cholangiocarcinoma cells ([1]; NIK siRNA introduced, FIG. 18) | increase in expression of P52 by knockdown of TRAF3 and PTEN [2, 3] | increase in expression of KRT19 by knockdown of TRAF3 and PTEN [2, 4]
